Source: PMC10573977, “PNA6, a Lactosyl Analogue of Angiotensin-(1-7), Reverses Pain Induced in Murine Models of Inflammation, Chemotherapy-Induced Peripheral Neuropathy, and Metastatic Bone Disease” (International Journal of Molecular Sciences, 2023)
pKd: −log10 of the molar value. Residues, ends and D or L forms follow the SMILES beside them. *: point of attachment. X1 = OC[C@H]1O[C@@H](O[C@H]2[C@H](O)[C@@H](O)[C@H](*)O[C@@H]2CO)[C@H](O)[C@@H](O)[C@H]1O

Key:
[1] = tested on: cancer-induced bone loss; test: Radiographic analysis of femur bone integrity (bone score); format: in vivo, mouse
Text: Radiographic images of mice’s right femurs with established (CIBP) or sham were captured using a Faxitron machine. Bone loss was rated and evaluated using a bone score scale by a blinded observer where 0 = normal healthy bone; 1 = 1–3 lesions; 2 = 4 to 6 lesions; 3 = uni-cortical bone fractures; and 4 = bicortical bone fractures.
A digital Faxitron machine (Ultrafocus; Faxitron Bioptics, Tucson, AZ) was used to image the femurs of all mice (all groups in chronic studies) on days 0 (baseline), 7, 10, and 14 post-surgery to determine an average bone score and to exclude the data for any mice with full cortical fracture before day 14. Two blinded observers evaluated the images using a 5-point bone rating scale. Mice were anesthetized with 80 mg/kg ketamine to 12 mg/kg xylazine (in a 10 mL/kg volume) on day 0 before the surgery, D7, D10, and D14, and radiographs were acquired. The bone scoring scale was as follows: 0 = normal bone, 1 = 1–3 lesions with no fracture, 2 = 4+ lesions with no fracture, 3 = uni-cortical, full thickness fracture, and 4 = bicortical, full thickness fracture. Animals with bicortical, full fractures were euthanized as our IACUC protocol measures dictated.

[2] = tested on: naïve mice; details: 1 mg/kg i.p., 30, 60, 90 and 120 min after treatment, 10 rpm, cut-off 180 s, vs vehicle
Protocol: The rotarod test is widely used to evaluate the motor coordination of rodents, and we used it to determine the motor effect of PNA6 to prevent interpretation of behavior as a false positive. Four days before testing, naïve mice were trained to acclimate to the rotating rod (LE8505 Rota-Rod, Panlab Harvard Apparatus, Spain) at a constant speed of 10 rpm. A maximal cut-off time of 180 s was used to prevent exhaustion. On the day of testing, mice were baselined and re-evaluated at 30, 60, 90, and 120 min after treatment.

[3] = no reference given, cited from earlier work
Text: Our team has taken a novel approach to treating CIPN by taking advantage of our extensive experience with the G-protein linked Mas receptor and its agonist Ang-(1-7) to develop a platform of glycosylated Ang-(1-7) Mas receptor agonists including PNA5 and PNA6 that have outstanding brain penetration, enhanced bioavailability, decreased brain and peripheral inflammation, improved cerebral blood flow, and restored cognitive function in our preclinical vascular dementia and TBI animal models. Activation of Mas decreases ROS and brain inflammation, increases cerebral circulation, increases inductio ...

[4] = in vivo; details: male, Sprague Dawley, rat, serum, iv, 10 mg/kg
Protocol: To directly compare the in vivo lifetime and the ability of PNA6 to cross the blood–brain barrier (BBB), we devised a methodology that combines simultaneous blood sampling with microdialysis. PNA6 was administered via a single tail vein injection at a dosage of 10 mg/kg. Blood samples were collected at specific time intervals relative to the injection, including t = −10, 1, 5, 10, 20, 30, 40, 50, 60, 70, 80, and 90 min (with t = 0 corresponding to the moment of injection) as shown in Figure 4. The determination of serum and cerebrospinal fluid (CSF) concentrations of PNA6 involved the utilization of a calibration curve, which accounted for factors such as dilution and probe recovery specific to each experimental condition.
Animals for Dialysis: Male Sprague Dawley rats (275–325 g) were used for dialysis experiments in vivo.
The compounds were injected intravenously at 10 mg/kg via a single tail vein injection. Blood draws were taken at t = −10, 1, 5, 10, 20, 30, 40, 50, 60, 70, 80, and 90 min (where t = 0 corresponds to injection). Microdialysis fractions were time-locked with blood draws at 10 min increments such that blood draws correlated with the median time of the microdialysis fraction. For microdialysis, a dual syringe pump (PHD 2000, Harvard Apparatus, Holliston, MA, USA) was set to a flow rate of 0.5 mL/minute. […]

[5] = biological target: Mas receptor (Homo sapiens) (UniProt P04201); details: cited from earlier work
[6] = tested on: Mas receptor (MasR1); details: cited from earlier work
Text: The renin-angiotensin system (RAS) is a crucial player in regulating blood pressure and fluid homeostasis. The octapeptide, Angiotensin II, is the first significant end product. Angiotensin II binds strongly to G-coupled protein receptors (GPCRs), Angiotensin receptor type 1 (AT1), to produce vasoconstriction, sodium-water retention, inflammation, and fibrosis; and it binds weakly to Angiotensin II receptor type II (AT2), which produces vasodilation and angiogenesis. Angiotensin II is cleaved by Angiotensin-converting enzyme 2 (ACE2) to yield the heptapeptide, Ang-(1-7), which ha ...

Sequence of Mas receptor (Homo sapiens) (P04201 whole entry): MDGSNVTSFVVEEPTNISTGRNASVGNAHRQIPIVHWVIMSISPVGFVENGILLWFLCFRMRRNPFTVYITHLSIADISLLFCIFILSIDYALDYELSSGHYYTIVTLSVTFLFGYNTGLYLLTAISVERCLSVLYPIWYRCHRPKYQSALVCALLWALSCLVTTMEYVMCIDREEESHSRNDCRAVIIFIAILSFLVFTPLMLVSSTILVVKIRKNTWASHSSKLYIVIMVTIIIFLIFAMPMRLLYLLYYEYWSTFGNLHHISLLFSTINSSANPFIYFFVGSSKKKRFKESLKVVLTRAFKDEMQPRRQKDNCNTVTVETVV
Sequence of Angiotensin-(1-7) (P01019 whole entry, looked up): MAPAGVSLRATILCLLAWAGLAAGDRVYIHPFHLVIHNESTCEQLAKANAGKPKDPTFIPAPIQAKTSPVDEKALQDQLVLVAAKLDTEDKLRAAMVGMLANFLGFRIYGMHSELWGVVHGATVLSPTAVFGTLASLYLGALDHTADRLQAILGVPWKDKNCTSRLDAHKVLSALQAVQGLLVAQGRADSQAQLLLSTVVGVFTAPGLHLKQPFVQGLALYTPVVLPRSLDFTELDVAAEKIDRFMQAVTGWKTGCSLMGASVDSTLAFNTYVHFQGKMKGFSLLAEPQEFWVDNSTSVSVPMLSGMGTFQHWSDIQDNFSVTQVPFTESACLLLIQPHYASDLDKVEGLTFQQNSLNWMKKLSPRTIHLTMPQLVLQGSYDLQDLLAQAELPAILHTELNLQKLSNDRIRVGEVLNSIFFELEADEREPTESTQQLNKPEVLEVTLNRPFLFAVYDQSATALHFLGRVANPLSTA

CC[C@H](C)[C@H](NC(=O)[C@H](Cc1ccc(O)cc1)NC(=O)[C@@H](NC(=O)[C@H](CCCNC(=N)N)NC(=O)[C@@H](N)CC(=O)O)C(C)C)C(=O)N[C@@H](Cc1c[nH]cn1)C(=O)N[C@@H](CO[C@@H]1O[C@H](CO)[C@@H](O[C@@H]2O[C@H](CO)[C@H](O)[C@H](O)[C@H]2O)[C@H](O)[C@H]1O)C(N)=O [PNA6, Asp-Arg-Val-Tyr-Ile-His-Ser-(O-β-Lact)-amide] (H-DRVYIHS(X1)-NH2)
cancer-induced bone loss vs vehicle ([1]; cancer-bearing mice, chronic treatment, radiographs day 14, n = 10–12): did not exacerbate cancer-induced bone loss degradation
bone remodeling in sham animals ([1]; sustained saline or PNA6, day 14): had no change in bone remodeling
time spent on the rotating rod [2]: neither increased nor decreased the time
penetration into the CNS ([3]; 'has been shown'): good penetration into the CNS
Tmax [4]: 1 min
half-life [4]: 22.1 min

Angiotensin-(1-7) (from UniProt P01019)
pKd [5]: 9.08

DRVYIHP [Ang-(1-7), Angiotensin-(1-7)]
selectivity for MasR1 over AT1 receptor ([6]; greater selectivity over AT1): 60 fold
selectivity for MasR1 over AT2 receptor ([6]; greater selectivity over AT2): 100 fold
half-life in vivo ([3]; degraded rapidly by enzymes): short half-life in vivo
